How the values were obtained:
[1] = target: T1, Human cKit Tyrosine Kinase Receptor (human cKit RTK-catalytic domain) (Homo sapiens, UniProt P10721); test: DELFIA cKit Tyrosine Kinase Assay (cell-free); assay type: biochemical; conditions: cell-free DELFIA, 25 ng cKit TKR, 150 μM ATP, 20 minutes at 30° C.; read-out: IC50
T1 construct: human cKit RTK-catalytic domain; purchased Panvera-Invitrogen P3080
Protocol: The compounds of the invention were tested with a dedicated cell-free kinase assay for the evaluation of the inhibiting activity on tyrosine kinases.
In more detail, the assay was a DELFIA™ (Dissociation Enhanced Time-Resolved Fluorometric Assay) Tyrosine Kinase Assay™ (PerkinElmer), a highly sensitive, reproducible ELISA assay that allows to evaluate the activity of a tyrosine kinase.
Human cKit Tyrosine Kinase Receptor (human cKit RTK-catalytic domain), commercially available from Panvera-Invitrogen (Cat. N^o. P3080), was used as the tyrosine kinase.
After 1 hour incubation at room temperature and three washings with 1×DELFIA Wash Buffer (PerkinElmer), the phosphotyrosine residues of the acceptor were detected with an europium-labelled anti-phosphotyrosine monoclonal antibody (DELFIA Eu-N1 labelled anti-phosphotyrosine antibody PT66, PerkinElmer) and, after a further hour incubation at room temperature and three washings with 1×DELFIA Wash Buffer, overall phosphorylation of biotinylated polyGAT was determined by addition of Enhancement Solution (PerkinElmer) and fluorimetric analysis of the plates (α-Fusion FP HT, PerkinElmer) in the “Time-Resolved Fluorescence” mode.

[2] = target: T2, human Ret TKR-catalytic domain (Homo sapiens, UniProt P07949); test: DELFIA Ret Kinase Assay (cell-free); assay type: biochemical; conditions: cell-free DELFIA, 50 ng Ret TKR, 3 μM ATP, 10 min. at 30° C.; read-out: IC50
T2 construct: human Ret TKR-catalytic domain; purchased ProQinase
T2 sequence (P07949 724-1016 limits assumed): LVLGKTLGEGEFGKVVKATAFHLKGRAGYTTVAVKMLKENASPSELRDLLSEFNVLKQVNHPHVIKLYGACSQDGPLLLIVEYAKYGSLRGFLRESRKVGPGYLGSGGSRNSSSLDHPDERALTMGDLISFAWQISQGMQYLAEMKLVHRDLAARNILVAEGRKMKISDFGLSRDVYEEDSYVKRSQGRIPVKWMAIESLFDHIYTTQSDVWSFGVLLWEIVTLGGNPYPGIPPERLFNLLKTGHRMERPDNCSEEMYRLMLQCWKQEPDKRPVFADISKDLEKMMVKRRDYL
Protocol: In order to evidence and quantify inhibitory activity on Ret tyrosine kinase, the most representative compounds of the invention were tested with a dedicated DELFIA kinase assay, using a human tyrosine-kinase receptor (Ret TKR) recombinant form (human Ret TKR-catalytic domain) available from ProQinase as the tyrosine kinase.
After 10 min. incubation at 30° C., the kinase reactions were worked up as in the DELFIA cKit Kinase Assay.

[3] = system: NIH3T3^MEN2A(C634R) cells; test: Survival curves by Coulter Counter cell count, 72 h; assay type: cell-based, murine; conditions: Mus musculus, NIH3T3MEN2A, 72 h treatment, read-out: Cont at 72 h IC50
Protocol: (§1) NIH3T3 Murine fibroblasts and the transfected line NIH3T3^MEN2A(C634R) were treated with increasing concentrations of the compounds of the invention for 72 h. Survival curves were obtained by Coulter Counter cell count. IC50s calculated from said curves are reported in Table 9: the higher sensitivity of the oncoprotein-expressing cell line is evident. The reversal of the morphologically transformed phenotype of NIH3T3^MEN2A (C634R) cells in the presence of the compounds of the invention was evaluated by contrast phase microscopy after 24 h treatment and photographically documented.

[4] = system: NIH3T3^MEN2A(C634R) cells; test: Reversal of morphologically transformed phenotype, contrast phase microscopy, 24 h; assay type: cell-based, murine; conditions: 24 h treatment; for minimal effective concentration: Mus musculus, NIH3T3MEN2A, read-out: Morphology a 24 h: concentration from which reversal was observed
Protocol: as §1

[5] = system: NIH3T3 cells transformed by oncoprotein Ret/ptc1; conditions: cited from earlier work
[6] = system: Ret/MEN2A (mutC634R and mutC634W); conditions: cited from earlier work
Ret/MEN2B (mutM918T) = Ret/MEN2B (mutM918T) (Homo sapiens, UniProt P07949, M918T); conditions: cited from earlier work
Sequence of Ret/MEN2B (mutM918T) (P07949 29-1114 M918T): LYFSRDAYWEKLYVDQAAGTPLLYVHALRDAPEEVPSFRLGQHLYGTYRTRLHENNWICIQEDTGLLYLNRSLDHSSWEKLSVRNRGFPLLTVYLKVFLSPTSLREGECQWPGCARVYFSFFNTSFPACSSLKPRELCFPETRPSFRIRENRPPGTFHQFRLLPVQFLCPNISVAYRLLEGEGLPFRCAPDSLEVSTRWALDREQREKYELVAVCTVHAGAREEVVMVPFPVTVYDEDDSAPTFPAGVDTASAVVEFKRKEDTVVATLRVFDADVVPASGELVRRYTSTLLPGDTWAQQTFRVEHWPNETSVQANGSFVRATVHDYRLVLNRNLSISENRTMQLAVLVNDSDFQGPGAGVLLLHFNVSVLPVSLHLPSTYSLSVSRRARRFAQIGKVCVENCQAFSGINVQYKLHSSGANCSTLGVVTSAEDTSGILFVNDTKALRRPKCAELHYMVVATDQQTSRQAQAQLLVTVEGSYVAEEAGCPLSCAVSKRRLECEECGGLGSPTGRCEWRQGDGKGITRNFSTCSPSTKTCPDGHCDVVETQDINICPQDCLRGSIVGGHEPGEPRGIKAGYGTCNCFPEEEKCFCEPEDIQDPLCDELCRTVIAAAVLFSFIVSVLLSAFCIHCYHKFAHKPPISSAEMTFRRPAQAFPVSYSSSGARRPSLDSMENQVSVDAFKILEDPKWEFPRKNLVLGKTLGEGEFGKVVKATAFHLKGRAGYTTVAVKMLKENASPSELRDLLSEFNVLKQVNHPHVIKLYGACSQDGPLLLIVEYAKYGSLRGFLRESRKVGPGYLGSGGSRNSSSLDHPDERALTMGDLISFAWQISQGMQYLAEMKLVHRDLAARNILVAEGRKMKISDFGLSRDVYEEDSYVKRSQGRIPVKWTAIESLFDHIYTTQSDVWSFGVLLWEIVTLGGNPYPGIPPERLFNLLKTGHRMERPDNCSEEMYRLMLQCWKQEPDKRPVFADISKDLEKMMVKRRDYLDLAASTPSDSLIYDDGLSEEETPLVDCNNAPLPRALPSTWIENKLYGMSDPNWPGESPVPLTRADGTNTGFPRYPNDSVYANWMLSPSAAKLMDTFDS

Met = Met (Homo sapiens, UniProt P08581); conditions: cited from earlier work
Sequence of Met (P08581 25-1390): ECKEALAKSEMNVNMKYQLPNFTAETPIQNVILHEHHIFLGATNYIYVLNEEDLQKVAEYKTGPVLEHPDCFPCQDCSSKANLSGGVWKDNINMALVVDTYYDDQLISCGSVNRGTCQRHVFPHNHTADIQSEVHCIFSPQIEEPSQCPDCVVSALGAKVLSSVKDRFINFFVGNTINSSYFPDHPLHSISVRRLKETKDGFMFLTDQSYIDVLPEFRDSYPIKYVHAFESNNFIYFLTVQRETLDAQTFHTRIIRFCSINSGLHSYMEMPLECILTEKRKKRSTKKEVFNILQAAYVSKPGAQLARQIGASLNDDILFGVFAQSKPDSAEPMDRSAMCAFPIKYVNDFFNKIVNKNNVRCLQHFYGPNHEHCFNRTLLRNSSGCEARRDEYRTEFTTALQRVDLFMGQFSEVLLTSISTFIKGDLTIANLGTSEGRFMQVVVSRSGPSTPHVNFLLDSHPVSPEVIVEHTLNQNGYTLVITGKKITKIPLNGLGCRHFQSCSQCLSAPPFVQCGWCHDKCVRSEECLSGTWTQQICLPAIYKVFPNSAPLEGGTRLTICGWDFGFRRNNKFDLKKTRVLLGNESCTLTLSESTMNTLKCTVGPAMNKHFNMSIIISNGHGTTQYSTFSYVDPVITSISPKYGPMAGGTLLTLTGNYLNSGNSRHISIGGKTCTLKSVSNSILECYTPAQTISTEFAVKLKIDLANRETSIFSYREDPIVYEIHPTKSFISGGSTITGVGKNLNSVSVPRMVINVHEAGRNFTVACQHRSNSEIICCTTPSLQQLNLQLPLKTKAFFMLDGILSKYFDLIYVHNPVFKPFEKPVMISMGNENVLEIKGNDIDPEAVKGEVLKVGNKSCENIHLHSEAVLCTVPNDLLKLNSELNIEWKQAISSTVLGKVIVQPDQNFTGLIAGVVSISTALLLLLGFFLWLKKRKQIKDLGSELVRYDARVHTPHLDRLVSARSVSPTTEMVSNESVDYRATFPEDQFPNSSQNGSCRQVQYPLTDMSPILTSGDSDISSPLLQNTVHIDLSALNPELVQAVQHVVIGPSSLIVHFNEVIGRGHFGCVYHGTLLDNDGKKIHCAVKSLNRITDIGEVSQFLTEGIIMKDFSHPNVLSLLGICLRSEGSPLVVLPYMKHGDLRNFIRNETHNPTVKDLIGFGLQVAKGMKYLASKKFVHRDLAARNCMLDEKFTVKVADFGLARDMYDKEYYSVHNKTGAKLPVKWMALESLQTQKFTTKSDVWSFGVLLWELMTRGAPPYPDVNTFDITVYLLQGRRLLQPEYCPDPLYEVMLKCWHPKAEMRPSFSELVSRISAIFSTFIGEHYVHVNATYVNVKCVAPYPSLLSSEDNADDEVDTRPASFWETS

PDGF-R = conditions: cited from earlier work
FGF-R1 = FGF-R1 (Homo sapiens, UniProt P11362); conditions: cited from earlier work
Sequence of FGF-R1 (P11362 22-822, species assumed): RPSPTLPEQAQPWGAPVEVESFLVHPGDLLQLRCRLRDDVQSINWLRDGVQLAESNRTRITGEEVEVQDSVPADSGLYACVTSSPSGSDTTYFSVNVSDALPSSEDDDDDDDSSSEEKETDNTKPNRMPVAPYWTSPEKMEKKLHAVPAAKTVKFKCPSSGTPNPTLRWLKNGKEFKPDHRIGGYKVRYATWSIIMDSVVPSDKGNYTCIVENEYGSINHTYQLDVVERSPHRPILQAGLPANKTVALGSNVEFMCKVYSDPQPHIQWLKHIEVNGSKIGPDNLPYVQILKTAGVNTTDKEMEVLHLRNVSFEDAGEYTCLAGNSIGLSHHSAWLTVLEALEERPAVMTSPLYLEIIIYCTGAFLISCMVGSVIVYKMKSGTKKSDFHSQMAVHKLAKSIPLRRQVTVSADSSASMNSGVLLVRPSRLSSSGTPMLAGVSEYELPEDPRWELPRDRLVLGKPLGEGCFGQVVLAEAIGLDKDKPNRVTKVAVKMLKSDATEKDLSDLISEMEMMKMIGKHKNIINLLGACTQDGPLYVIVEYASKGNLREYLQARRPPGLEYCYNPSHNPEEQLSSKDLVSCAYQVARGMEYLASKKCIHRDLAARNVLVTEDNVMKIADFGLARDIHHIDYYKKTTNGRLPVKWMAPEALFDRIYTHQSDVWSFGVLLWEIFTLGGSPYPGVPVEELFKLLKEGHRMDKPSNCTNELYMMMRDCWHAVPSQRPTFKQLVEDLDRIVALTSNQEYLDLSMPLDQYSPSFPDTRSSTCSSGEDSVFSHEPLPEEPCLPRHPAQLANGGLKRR

FGF-R3 = FGF-R3 (Homo sapiens, UniProt P22607); conditions: cited from earlier work
Sequence of FGF-R3 (P22607 23-806, species assumed): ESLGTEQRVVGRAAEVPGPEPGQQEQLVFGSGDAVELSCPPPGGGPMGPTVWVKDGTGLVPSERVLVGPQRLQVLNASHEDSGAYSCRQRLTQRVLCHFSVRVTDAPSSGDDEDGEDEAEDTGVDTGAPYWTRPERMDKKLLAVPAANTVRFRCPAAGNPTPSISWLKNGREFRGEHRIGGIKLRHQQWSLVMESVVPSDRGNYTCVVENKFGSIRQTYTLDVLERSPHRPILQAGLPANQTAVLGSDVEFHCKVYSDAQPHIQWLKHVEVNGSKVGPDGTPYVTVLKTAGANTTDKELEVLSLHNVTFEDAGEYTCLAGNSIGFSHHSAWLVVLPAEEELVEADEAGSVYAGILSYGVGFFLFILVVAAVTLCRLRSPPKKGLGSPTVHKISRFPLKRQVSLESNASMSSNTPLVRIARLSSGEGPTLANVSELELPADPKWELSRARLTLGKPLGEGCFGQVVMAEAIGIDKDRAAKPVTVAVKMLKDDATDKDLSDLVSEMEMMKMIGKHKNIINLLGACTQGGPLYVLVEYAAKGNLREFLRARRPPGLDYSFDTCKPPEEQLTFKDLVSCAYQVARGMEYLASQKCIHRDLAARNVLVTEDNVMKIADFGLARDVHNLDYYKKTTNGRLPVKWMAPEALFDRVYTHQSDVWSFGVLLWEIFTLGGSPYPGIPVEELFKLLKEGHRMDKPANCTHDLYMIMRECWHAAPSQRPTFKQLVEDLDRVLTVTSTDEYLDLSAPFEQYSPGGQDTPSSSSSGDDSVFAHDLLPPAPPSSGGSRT

Kit (c-Kit and mutΔ559) = conditions: cited from earlier work
[7] = system: tyrosine kinases Ret/MEN2A, Ret/MEN2B, Met, PDGF-R, FGF-R1, FGF-R3 and Kit; conditions: cited from earlier work
[8] = system: cells transformed by Ret/MEN2A, Ret/MEN2B, Met, PDGF-R, FGF-R1, FGF-R3 and Kit; conditions: cited from earlier work

T1 sequence (P10721 589-937 limits assumed): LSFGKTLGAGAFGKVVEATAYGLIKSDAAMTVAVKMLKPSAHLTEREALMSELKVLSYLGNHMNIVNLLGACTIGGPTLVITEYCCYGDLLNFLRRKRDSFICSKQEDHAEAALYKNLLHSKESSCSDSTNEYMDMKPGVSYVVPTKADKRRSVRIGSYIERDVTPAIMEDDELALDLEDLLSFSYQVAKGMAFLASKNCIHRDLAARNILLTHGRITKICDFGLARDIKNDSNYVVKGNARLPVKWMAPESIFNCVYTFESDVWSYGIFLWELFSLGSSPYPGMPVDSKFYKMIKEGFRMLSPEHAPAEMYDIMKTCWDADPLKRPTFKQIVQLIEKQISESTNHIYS

Question: Which results are given for `COc1cc2c(cc1OC)/C(=C\c1ccc(O)cc1)C(=O)N2` [(E)-1,3-dihydro-4-hydroxybenzylidene-5,6-dimethoxy-1H-indol-2-one]?
Answer: IC50 [1]: 2.37 ± 0.68 µM; IC50 [2]: 3.67 µM; IC50 [3]: 3.6 ± 1.6 µM; Morphology a 24 h [4]: REVERSAL; minimal effective concentration [4]: ≥ 6 µM; restoring the normal phenotype in transformed cells [5]: restoring the normal phenotype; inhibition of self-phosphorylation [6]: fully inhibiting; inhibition of self-phosphorylation (Ret/MEN2B (mutM918T)): fully inhibiting; inhibition of self-phosphorylation (Met): fully inhibiting; inhibition of self-phosphorylation (PDGF-R): fully inhibiting; inhibition of self-phosphorylation (FGF-R1): fully inhibiting; inhibition of self-phosphorylation (FGF-R3): fully inhibiting; inhibition of self-phosphorylation (Kit (c-Kit and mutΔ559)): fully inhibiting; down regulation of tyrosine kinase expression [7]: down regulating their expression; restoring the phenotype of transformed cells [8]: restoring the phenotype of cells transformed by them

Question: Which IC50 [1] does the source give for `COc1cc2c(cc1OC)/C(=C\c1ccc(OC(=O)N3CCC(N4CCCCC4)CC3)cc1)C(=O)N2` [B.5, 4-(1′-Piperidinyl)-1-piperidinecarboxylic Acid, (E)-4-(5,6-dimethoxy-2-oxo-1,2-dihydro-indol-3-ylidenemethyl)phenyl Ester] here?
Answer: 4.68 µM

Question: And the IC50 [2]?
Answer: 2.17 µM

Question: What about the IC50 [3] of the same compound?
Answer: 2 ± 0.7 µM

Question: And the “Morphology a 24 h” value [4]?
Answer: REVERSAL

Question: What about the minimal effective concentration [4] of the same compound?
Answer: ≥ 5 µM

Question: What about the melting point of the same compound?
Answer: 235 to 237 °C

Question: For `COc1cc2c(cc1OC)/C(=C\c1ccc(OC(=O)N3CCN(C)CC3)cc1)C(=O)N2` [Example B.1, (E)-4-methyl-piperazine-1-carboxylic Acid, 4-(5,6-dimethoxy-2-oxo-1,2-dihydro-indol-3-ylidenemethyl)phenyl Ester], which IC50 [1] is on record?
Answer: 4.46 µM

Question: What about the IC50 [2] of the same compound?
Answer: 13.3 µM

Question: What about the IC50 [3] of the same compound?
Answer: 2.8 ± 0.5 µM

Question: What about the “Morphology a 24 h” value [4] of the same compound?
Answer: REVERSAL

Question: And the minimal effective concentration [4]?
Answer: ≥ 10 µM

Question: And the melting point?
Answer: 198 to 200 °C

Question: What does the source list for `COc1cc2c(cc1OC)/C(=C\c1ccc(OP(=O)(O)O)cc1)C(=O)N2` [Example C.1, (E)-4-(5,6-dimethoxy-2-oxo-1,2-dihydro-indol-3-ylidenemethyl)phenyl Phosphoric Acid]?
Answer: IC50 [1]: 51.8 µM; IC50 [2]: 2.61 µM; IC50 [3]: 3.9 ± 0.25 µM; Morphology a 24 h [4]: REVERSAL; minimal effective concentration [4]: ≥ 10 µM; melting point: 218 to 220 °C

Question: For `COc1ccc(OC(=O)Oc2ccc(/C=C3/C(=O)Nc4cc(OC)c(OC)cc43)cc2)cc1` [Example H.1, (E)-4-(5,6-dimethoxy-2-oxo-1,2-dihydro-indol-3-ylidenemethyl)phenyl, 4-methoxyphenyl Carbonate], which IC50 [1] is on record?
Answer: 1.19 µM

Question: What about the IC50 [2] of the same compound?
Answer: 4.43 µM

Question: And the IC50 [3]?
Answer: 3.3 ± 0.03 µM

Question: What about the “Morphology a 24 h” value [4] of the same compound?
Answer: REVERSAL

Question: And the minimal effective concentration [4]?
Answer: ≥ 10 µM

Question: And the melting point?
Answer: 165 to 167 °C

Source: US20050209195A1, “Indolinone derivatives” (Cell Therapeutics Europe S.r.I, priority 2004, published 2005)
